Structures can show the parent of a compound that is named as a salt.
Tests used:
[1] = molecular target: T1, Human MC1R (Homo sapiens, UniProt Q01726); assay: Human MC1R agonistic activity measurement (cAMP assay) using human melanoma cell line HBL; type: cell-based; details: HBL cells; for Emax: 0.5 h, Intrinsic Activity, vehicle cAMP = 0%, αMSH at 10^-6 M = 100%, read-out: Human MC1R IA %; for EC50: intracellular cAMP, 37° C. for 30 minutes
T1 construct: endogenous in cells; host or cells: human melanoma cell line HBL
Method: (1) Method for Culturing Cells
Human MC1R agonistic activity measurement was carried out by using human melanoma cell line HBL. Culture of HBL: F-10 Nutrient Mixture comprising 10% FCS and Penicillin-streptomycin was used in the culture.
(2) cAMP Assay and Data Calculation
Each compound solution having each concentration was mixed with a cAMP assay buffer (HBSS (Hank's Balanced Salt Solution) comprising 10 mM HEPES and 0.1% BSA), and dispensed into a 96 well plate. HBL was suspended into a cAMP assay buffer comprising 0.5 mM IBMX so that the concentration became 5×10^4/mL, and the resulting suspension was dispensed into the above 96 well plate, then mixed, and left to stand at 37° C. for 30 minutes, and then the intracellular cAMP concentration was measured by a fluorescence method using Envision (ex. 320 nm, em. 590 nm and 665 nm). Each ratio value (665 nm measurement value/590 nm measurement value×10,000) was calculated from the resulting data, and the quantitative value of each cAMP concentration was calculated by using Prism 5.02, and induction % value (% of each sample when the average concentration value of cAMP of vehicle was set to be 0% and the average concentration value of cAMP of αMSH at 10^−6 M was set to be 100%) was calculated, and EC50 value and Intrinsic Activity (IA) % value were calculated.

[2] = molecular target: human MC4R (Homo sapiens, UniProt P32245); assay: human MC4R agonistic activity; type: cell-based
Chain of human MC4R (P32245 whole entry): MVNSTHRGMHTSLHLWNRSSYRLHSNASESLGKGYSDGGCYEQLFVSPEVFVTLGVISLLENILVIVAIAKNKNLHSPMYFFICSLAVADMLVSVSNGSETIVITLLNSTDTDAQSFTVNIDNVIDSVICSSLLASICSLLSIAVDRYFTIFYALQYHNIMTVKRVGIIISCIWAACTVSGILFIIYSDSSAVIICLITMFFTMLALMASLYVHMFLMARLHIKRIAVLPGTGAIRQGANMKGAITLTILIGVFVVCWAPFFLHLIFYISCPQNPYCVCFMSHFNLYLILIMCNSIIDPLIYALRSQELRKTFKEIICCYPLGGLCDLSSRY

T1 sequence (Q01726 whole entry): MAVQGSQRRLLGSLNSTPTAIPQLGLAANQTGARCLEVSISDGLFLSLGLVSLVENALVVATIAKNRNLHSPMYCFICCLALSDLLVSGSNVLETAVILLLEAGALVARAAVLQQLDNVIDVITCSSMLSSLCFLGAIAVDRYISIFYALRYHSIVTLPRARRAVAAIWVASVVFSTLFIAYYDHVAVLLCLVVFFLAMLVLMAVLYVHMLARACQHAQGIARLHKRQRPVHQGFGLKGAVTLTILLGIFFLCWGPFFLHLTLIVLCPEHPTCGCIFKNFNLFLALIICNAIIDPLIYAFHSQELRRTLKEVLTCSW

| SMILES | Emax [1] | EC50 [1] | EC50 [2] |
| --- | --- | --- | --- |
| COC(C)(C)CCCN1C[C@@H](c2ccc(F)cc2F)[C@](F)(C(=O)Nc2nccn2Cc2ccc(C)cc2N2CCC(C(=O)O)CC2)C1 [Example 13, 1-(2-{[2-({[(3R,4R)-4-(2,4-difluorophenyl)-3-fluoro-1-(4-methoxy-4-methylpentyl)pyrrolidin-3-yl]carbonyl}amino)-1H-imidazol-1-yl]methyl}-5-methylphenyl)piperidine-4-carboxylic acid] | 89% | 22 nM |  |
| O=C(O)C1CCN(c2cc(C(F)(F)F)ccc2Cn2ccnc2NC(=O)[C@]2(F)CN(C3CCCC3)C[C@H]2c2ccc(F)cc2F)CC1 [Example 16, 1-[2-{[2-({[(3R,4R)-1-cyclopentyl-4-(2,4-difluorophenyl)-3-fluoropyrrolidin-3-yl]carbonyl}amino)-1H-imidazol-1-yl]methyl}-5-(trifluoromethyl)phenyl]piperidin-4-carboxylic acid] | 88% | 6.7 nM |  |
| COC(C)(C)CCCN1C[C@@H](c2ccc(F)cc2F)[C@](F)(C(=O)Nc2nccn2Cc2ccc(C(F)(F)F)cc2N2CCC(C(=O)O)CC2)C1 [Example 19, 1-[2-{[2-({[(3R,4R)-4-(2,4-difluorophenyl)-3-fluoro-1-(4-methoxy-4-methylpentyl)pyrrolidin-3-yl]carbonyl}amino)-1H-imidazol-1-yl]methyl}-5-(trifluoromethyl)phenyl]piperidine-4-carboxylic acid] | 83% | 3.5 nM |  |
| O=C(O)C1CCN(c2cc(C(F)(F)F)ccc2Cn2ccnc2NC(=O)[C@]2(F)CN(CCCS(=O)(=O)N3CCCC3)C[C@H]2c2ccc(F)cc2F)CC1 [Example 26, 1-[2-({2-[({(3R,4R)-4-(2,4-difluorophenyl)-3-fluoro-1-[3-(pyrrolidin-1-ylsulfonyl)propyl]pyrrolidin-3-yl}carbonyl)amino]-1H-imidazol-1-yl}methyl)-5-(trifluoromethyl)phenyl]piperidine-4-carboxylic acid] | 97% | 7.6 nM |  |
| CN(C)C(=O)CCCN1CC(c2ccc(F)cc2F)C(C(=O)Nc2nccn2Cc2ccc(C(F)(F)F)cc2N2CCC(C(=O)O)CC2)(C(F)(F)F)C1 (stereo not drawn) [Example 28] | 91% | 25 nM |  |
| CC(C)(C)N1C[C@@H](C(=O)Nc2nccn2CC2(N3CCOCC3)CCCCC2)[C@H](c2ccc(F)cc2F)C1 [Example 70] | 58% | 83 nM |  |

The remaining lines, values ahead:

| Emax [1] | EC50 [1] | EC50 [2] | SMILES |
| --- | --- | --- | --- |
|  | 2.8 nM | 557 nM | Cc1ccc(Cn2ccnc2NC(=O)[C@@H]2CN(CC[C@H]3Cc4ccccc4CN3)C[C@H]2c2ccc(F)cc2F)c(N2CCC(C(=O)O)CC2)c1 [Example 32, 1-(2-{[2-({[(3S,4R)-4-(2,4-difluorophenyl)-1-{2-[(3R)-1,2,3,4-tetrahydroisoquinolin-3-yl]ethyl}pyrrolidin-3-yl]carbonyl}amino)-1H-imidazol-1-yl]methyl}-5-methylphenyl)piperidine-4-carboxylic acid tetrahydrochloride] |
| 108% | 6 nM |  | CC(C)(C)N1C[C@@H](c2ccc(F)cc2)[C@](F)(C(=O)Nc2nccn2Cc2ccc(C(F)(F)F)cc2N2CCC(C(=O)O)CC2)C1 [Example 43, 1-[2-{[2-({[(3R,4R)-1-tert-butyl-3-fluoro-4-(4-fluorophenyl)pyrrolidin-3-yl]carbonyl}amino)-1H-imidazol-1-yl]methyl}-5-(trifluoromethyl)phenyl]piperidine-4-carboxylic acid] |
| 96% | 2 nM |  | CC(C)c1ccc(Cn2ccnc2NC(=O)[C@]2(F)CN(C(C)(C)C)C[C@H]2c2ccc(F)cc2)c(N2CCC(C(=O)O)CC2)c1 [Example 49, 1-[2-{[2-({[(3R,4R)-1-tert-butyl-3-fluoro-4-(4-fluorophenyl)pyrrolidin-3-yl]carbonyl}amino)-1H-imidazol-1-yl]methyl}-5-(propan-2-yl)phenyl]piperidine-4-carboxylic acid] |
| 118% | 1.6 nM |  | COc1ccc([C@@H]2CN(C(C)(C)C)C[C@@]2(F)C(=O)Nc2nccn2Cc2ccc(C(F)(F)F)cc2N2CCC(C(=O)O)CC2)cc1 [Example 52, 1-[2-{[2-({[(3R,4R)-1-tert-butyl-3-fluoro-4-(4-methoxyphenyl)pyrrolidin-3-yl]carbonyl}amino)-1H-imidazol-1-yl]methyl}-5-(trifluoromethyl)phenyl]piperidine-4-carboxylic acid] |
| 109% | 2.8 nM |  | COc1ccc([C@@H]2CN(C(C)(C)C)C[C@@]2(F)C(=O)Nc2nccn2Cc2ccc(C(C)C)cc2N2CCC(C(=O)O)CC2)cc1 [Example 54, 1-[2-{[2-({[(3R,4R)-1-tert-butyl-3-fluoro-4-(4-methoxyphenyl)pyrrolidin-3-yl]carbonyl}amino)-1H-imidazol-1-yl]methyl}-5-(propan-2-yl)phenyl]piperidine-4-carboxylic acid] |
| 79% | 2.3 nM |  | Cc1ccc(Cn2ccnc2NC(=O)[C@@H]2CN(C3(C)CCN(CCO)CC3)C[C@H]2c2ccc(F)cc2F)c(N2CCOCC2)c1 [Example 64, (3S,4R)-4-(2,4-difluorophenyl)-1-[1-(2-hydroxyethyl)-4-methylpiperidin-4-yl]-N-{1-[4-methyl-2-(morpholin-4-yl)benzyl]-1H-imidazol-2-yl}pyrrolidine-3-carboxamide] |
| 66% | 20 nM |  | Cc1ccc(Cn2ccnc2NC(=O)[C@@H]2CN(c3ccnc(C)c3)C[C@H]2c2ccc(F)cc2F)c(N2CCOCC2)c1 [Example 72] |
| 76% | 68 nM |  | CC(C)(C)N1C[C@@H](c2ccc(F)cn2)[C@](F)(C(=O)Nc2nccn2Cc2ccc(C(F)(F)F)nc2N2CCOCC2)C1 [Example 80] |
| 98% | 16 nM |  | Cc1ccc(Cn2ccnc2NC(=O)[C@@H]2CN(C(C)(C)C)C[C@H]2c2ccc(F)cc2F)c(N2CCC(C(=O)NS(=O)(=O)N(C)C)CC2)c1 [Example 85, 1-(2-{[2-({[(3S,4R)-1-tert-butyl-4-(2,4-difluorophenyl)pyrrolidin-3-yl]carbonyl}amino)-1H-imidazol-1-yl]methyl}-5-methylphenyl)-N-(dimethylsulfamoyl)piperidine-4-carboxamide trihydrochloride] |

Source: patent US10487072B2, “Substituted imidazoles as melanocortin receptor agonists” (MITSUBISHI TANABE PHARMA CORPORATION, priority 2015, dated 2019)
